Data from ChEMBL document CHEMBL5465560, “Selectivity Literature for EUbOPEN Chemogenomic Library” (2024).

Key:
[1] = molecular target: Nucleosome-remodeling factor subunit BPTF (Homo sapiens, UniProt Q12830); assay: Selectivity interaction (Human bromodomain panel (DSF assay)) EUB0000233b BPTF
[2] = molecular target: Mitogen-activated protein kinase kinase kinase kinase 1 (Homo sapiens) (UniProt Q92918); assay: Selectivity interaction (Kinase panel (KiNativ target engagement assay in Jurkat cells)) EUB0001635a MAP4K1; assay type: cell-based; conditions: Selectivity number of off-targets 0.0, Selectivity number of targets 233.0, Source Knowledge https://www.sciencedirect.com/science/article/pii/S2451945619300674?via%3Dihub, at 1 µM
Chain of Mitogen-activated protein kinase kinase kinase kinase 1 (Homo sapiens) (Q92918 whole entry, looked up): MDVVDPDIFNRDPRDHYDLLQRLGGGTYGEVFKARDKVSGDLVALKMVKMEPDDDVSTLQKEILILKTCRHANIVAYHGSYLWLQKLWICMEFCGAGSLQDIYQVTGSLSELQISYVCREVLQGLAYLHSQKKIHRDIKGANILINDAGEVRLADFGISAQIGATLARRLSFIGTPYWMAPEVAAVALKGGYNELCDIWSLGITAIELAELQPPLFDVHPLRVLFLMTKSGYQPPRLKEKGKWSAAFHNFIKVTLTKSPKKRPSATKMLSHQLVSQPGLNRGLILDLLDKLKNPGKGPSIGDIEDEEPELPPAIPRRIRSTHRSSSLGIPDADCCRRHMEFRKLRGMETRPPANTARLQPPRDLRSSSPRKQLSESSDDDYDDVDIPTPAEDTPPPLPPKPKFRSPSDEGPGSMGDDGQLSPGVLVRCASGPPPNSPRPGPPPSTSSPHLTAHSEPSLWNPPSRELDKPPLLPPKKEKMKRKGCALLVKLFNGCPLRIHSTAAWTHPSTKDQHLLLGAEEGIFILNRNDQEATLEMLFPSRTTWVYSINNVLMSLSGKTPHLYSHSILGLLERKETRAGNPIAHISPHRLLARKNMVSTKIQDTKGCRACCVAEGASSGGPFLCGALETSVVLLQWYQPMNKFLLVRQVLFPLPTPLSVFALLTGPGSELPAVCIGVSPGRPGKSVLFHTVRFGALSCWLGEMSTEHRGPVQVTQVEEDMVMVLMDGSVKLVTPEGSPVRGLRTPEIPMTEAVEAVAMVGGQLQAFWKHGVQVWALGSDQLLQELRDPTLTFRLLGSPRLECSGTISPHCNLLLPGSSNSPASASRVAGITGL

[3] = test system: T1, Receptor-type tyrosine-protein kinase FLT3 (Homo sapiens), P36888 [D835Y]; conditions: at 10 µM
T1 sequence (whole entry): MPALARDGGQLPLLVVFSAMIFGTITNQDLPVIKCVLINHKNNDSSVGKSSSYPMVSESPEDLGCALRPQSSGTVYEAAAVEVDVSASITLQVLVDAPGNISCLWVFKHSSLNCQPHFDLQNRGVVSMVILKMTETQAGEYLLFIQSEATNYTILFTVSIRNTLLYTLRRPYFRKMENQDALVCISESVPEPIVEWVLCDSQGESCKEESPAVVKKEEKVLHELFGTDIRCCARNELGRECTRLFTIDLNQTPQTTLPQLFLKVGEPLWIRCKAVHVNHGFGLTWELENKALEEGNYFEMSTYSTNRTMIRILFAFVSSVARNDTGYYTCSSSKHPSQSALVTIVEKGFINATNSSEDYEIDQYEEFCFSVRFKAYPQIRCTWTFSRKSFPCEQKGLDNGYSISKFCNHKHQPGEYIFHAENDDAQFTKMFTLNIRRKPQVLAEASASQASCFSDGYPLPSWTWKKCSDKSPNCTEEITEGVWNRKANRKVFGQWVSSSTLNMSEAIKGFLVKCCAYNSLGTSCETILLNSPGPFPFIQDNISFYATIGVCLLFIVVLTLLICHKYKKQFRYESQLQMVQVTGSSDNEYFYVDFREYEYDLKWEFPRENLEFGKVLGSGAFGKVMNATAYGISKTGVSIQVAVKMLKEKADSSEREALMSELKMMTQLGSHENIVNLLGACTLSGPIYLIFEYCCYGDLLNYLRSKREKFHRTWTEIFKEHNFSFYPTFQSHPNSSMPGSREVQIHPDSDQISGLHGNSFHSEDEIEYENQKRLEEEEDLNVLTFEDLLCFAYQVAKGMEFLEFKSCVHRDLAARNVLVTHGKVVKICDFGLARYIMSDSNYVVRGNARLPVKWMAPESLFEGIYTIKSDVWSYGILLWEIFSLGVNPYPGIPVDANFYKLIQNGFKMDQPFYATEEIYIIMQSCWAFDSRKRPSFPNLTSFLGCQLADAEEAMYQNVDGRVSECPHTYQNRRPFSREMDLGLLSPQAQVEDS

[4] = molecular target: T2, Cyclin-dependent kinase 11A (Homo sapiens) (UniProt Q9UQ88); assay: Selectivity interaction (KinomeScan (DiscoverX)) EUB0000607a CDK11A; conditions: at 10 µM
T2 sequence (whole entry): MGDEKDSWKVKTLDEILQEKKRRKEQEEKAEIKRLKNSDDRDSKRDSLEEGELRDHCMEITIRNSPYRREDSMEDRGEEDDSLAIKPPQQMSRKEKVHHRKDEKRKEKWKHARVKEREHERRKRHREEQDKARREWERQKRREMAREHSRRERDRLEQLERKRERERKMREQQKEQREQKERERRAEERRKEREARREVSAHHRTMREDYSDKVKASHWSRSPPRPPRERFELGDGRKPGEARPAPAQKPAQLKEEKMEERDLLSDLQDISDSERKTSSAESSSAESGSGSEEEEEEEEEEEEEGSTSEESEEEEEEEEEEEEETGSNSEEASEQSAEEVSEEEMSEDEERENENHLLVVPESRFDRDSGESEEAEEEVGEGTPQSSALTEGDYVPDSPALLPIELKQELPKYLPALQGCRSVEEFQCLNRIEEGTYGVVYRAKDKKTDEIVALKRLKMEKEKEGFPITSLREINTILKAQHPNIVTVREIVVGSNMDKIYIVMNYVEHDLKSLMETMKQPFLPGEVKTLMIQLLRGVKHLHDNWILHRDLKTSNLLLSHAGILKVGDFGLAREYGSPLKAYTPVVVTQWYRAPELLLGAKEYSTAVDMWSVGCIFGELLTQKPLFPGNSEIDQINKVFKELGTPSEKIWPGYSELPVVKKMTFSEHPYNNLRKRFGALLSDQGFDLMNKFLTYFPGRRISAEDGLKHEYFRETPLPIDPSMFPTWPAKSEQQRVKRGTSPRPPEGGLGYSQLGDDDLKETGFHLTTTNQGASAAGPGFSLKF

[5] = molecular target: Progesterone receptor (Homo sapiens) (UniProt P06401); assay: Selectivity interaction (Eurofins CEREP Diversity Profile (receptors and ion channels)) EUB0000279b PGR; conditions: at 10 µM
Chain of Progesterone receptor (Homo sapiens) (P06401 whole entry, the tested form may be a part): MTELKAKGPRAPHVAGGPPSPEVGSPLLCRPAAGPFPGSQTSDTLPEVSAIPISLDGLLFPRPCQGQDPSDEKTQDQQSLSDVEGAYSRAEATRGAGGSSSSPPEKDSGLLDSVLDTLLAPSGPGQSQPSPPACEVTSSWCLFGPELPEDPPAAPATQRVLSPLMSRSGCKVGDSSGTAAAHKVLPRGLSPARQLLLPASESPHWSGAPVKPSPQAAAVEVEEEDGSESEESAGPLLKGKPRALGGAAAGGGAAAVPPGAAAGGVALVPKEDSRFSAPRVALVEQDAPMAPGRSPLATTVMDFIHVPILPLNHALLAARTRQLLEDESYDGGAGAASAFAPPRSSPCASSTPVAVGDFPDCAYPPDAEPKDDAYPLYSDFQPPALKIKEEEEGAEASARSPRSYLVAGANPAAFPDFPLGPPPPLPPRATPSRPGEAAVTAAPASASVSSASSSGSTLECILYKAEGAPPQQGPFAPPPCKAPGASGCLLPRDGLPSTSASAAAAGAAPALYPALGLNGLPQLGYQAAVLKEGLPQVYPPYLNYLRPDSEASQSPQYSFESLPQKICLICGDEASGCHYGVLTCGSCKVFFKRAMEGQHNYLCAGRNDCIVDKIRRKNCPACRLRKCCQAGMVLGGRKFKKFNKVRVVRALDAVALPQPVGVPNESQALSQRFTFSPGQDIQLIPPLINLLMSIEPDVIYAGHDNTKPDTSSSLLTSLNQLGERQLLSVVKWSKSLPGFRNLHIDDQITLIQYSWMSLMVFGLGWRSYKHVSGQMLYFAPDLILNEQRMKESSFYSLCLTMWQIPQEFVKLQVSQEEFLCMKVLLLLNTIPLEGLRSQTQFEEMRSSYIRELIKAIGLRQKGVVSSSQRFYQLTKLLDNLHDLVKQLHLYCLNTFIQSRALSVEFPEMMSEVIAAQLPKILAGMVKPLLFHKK

[6] = molecular target: Epithelial discoidin domain-containing receptor 1 (Homo sapiens) (UniProt Q08345); assay: Selectivity interaction (KinomeScan (DiscoverX)) EUB0001619a DDR1; conditions: at 1 µM
Chain of Epithelial discoidin domain-containing receptor 1 (Homo sapiens) (Q08345 whole entry, the tested form may be a part): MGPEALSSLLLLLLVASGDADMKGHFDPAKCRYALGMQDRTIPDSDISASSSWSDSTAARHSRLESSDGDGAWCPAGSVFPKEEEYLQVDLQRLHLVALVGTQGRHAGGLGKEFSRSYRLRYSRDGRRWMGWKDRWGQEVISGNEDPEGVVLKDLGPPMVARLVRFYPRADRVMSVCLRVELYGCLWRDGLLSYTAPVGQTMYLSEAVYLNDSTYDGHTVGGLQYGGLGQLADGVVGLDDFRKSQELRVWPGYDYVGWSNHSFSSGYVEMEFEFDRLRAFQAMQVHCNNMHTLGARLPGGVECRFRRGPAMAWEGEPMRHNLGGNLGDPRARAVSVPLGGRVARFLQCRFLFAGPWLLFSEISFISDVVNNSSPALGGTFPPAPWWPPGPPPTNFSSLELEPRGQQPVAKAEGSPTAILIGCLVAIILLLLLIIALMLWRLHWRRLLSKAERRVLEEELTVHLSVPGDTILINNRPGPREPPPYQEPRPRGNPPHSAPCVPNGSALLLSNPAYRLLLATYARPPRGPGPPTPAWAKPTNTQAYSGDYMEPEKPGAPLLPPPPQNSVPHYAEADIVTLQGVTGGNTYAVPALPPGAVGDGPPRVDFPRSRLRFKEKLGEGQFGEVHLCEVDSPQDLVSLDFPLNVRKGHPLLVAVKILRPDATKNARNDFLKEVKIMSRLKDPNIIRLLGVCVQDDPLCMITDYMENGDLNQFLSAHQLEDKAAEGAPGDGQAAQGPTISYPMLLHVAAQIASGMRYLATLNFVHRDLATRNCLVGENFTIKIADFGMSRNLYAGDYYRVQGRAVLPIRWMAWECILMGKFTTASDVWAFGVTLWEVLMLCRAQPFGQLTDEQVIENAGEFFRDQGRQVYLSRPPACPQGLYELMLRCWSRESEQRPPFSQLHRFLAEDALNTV

[7] = molecular target: T3, Serine/threonine-protein kinase TNNI3K (Homo sapiens) (UniProt Q59H18); assay: Selectivity interaction (KinomeScan (DiscoverX)) EUB0001619a TNNI3K; conditions: at 1 µM
T3 sequence (whole entry): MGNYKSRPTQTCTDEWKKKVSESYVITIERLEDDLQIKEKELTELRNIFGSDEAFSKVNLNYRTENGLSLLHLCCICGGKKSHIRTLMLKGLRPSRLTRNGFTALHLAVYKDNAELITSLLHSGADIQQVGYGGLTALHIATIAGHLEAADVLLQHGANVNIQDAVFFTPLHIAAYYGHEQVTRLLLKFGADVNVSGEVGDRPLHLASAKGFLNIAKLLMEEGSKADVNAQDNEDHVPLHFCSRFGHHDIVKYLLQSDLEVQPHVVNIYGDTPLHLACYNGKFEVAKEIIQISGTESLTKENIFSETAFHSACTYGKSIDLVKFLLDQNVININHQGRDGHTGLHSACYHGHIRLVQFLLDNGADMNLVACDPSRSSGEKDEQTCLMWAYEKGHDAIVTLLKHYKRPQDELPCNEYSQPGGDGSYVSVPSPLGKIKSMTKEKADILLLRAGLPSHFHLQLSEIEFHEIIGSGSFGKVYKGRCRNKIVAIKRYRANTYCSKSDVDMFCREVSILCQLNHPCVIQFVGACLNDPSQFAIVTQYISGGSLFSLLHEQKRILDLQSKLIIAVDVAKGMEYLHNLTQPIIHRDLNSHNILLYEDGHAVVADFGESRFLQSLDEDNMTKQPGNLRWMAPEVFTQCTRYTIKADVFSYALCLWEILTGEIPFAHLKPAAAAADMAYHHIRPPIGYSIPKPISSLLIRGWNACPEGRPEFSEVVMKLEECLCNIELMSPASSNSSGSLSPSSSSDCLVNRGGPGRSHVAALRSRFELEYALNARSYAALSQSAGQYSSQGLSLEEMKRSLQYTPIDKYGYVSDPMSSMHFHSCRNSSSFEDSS

`CN(C)CCCOc1ccc(-c2cc(NCCCn3cccn3)nc(S(C)(=O)=O)n2)cc1` showed a dTM [1] of 4 K.

`C=CC(=O)Nc1ccc(C(=O)Nc2[nH]nc3c2CN(C(=O)N[C@H](CN(C)C)c2ccccc2)C3(C)C)cc1` gave a % of engagement [2] of 4.1%.

`Cc1cc([C@@H](C)Nc2ccccc2C(=O)O)c2nc(N3CCOCC3)cc(=O)n2c1` [AZD-6482] was tested, and the % of control [3] was 54%.

`CNC(=O)Nc1ccc(-c2nc(N3CC4CCC(C3)O4)c3cnn(C4CCC5(CC4)OCCO5)c3n2)cc1` gave a % of control [4] of 97%.

With `CC(=O)c1cc(-c2ccccc2OCC2CC2)c2ncccn12` the % of control [5] was 81%.

For `N#Cc1cccc(-c2c[nH]c3ncnc(N4CCOCC4)c23)c1`, the % of control [6] was 100% and the % of control [7] was 74%.
